The source made the active and inactive calls. No cut-off for these calls is given here.
Legend:
[1] = biological target: Bromodomain-containing protein 4 (Homo sapiens, UniProt O60885); experiment: Inhibition of His-tagged […] recombinant BRD4 (unknown origin) (21 to 153 residues) using SGRGK(Ac)GGK(Ac)GLGK(Ac)GGAK(Ac)RHRK(Biotin)-OH as substrate measured after 1 hr by HTRF assay
Mus musculus [2] = experiment: Nephroprotective activity against unilateral ureteral obstruction kidney injury C57BL/6J mouse model assessed as decreased tubular injury score at 100 mg/kg, ip administered for 8 consecutive days by H & E staining based assay; type: functional, organism-based; settings: time 8.0 day
Mus musculus [3] = experiment: Nephroprotective activity against unilateral ureteral obstruction kidney injury C57BL/6J mouse model assessed as decreased kidney damage at 100 mg/kg, ip administered for 8 consecutive days by H & E staining based assay; type: functional, organism-based; settings: time 8.0 day
Mus musculus [4] = experiment: Nephroprotective activity against unilateral ureteral obstruction kidney injury C57BL/6J mouse model assessed as decreased fibrotic scores at 100 mg/kg, ip administered for 8 consecutive days by Masson's staining based assay; type: functional, organism-based; settings: time 8.0 day
Mus musculus [5] = experiment: Anti-fibrotic activity against unilateral ureteral obstruction kidney injury C57BL/6J mouse model assessed as suppression of UUO-induced alpha-SMA expression in kidney at 100 mg/kg, ip administered daily measured after 7 days by immunohistochemistry staining analysis; type: functional, organism-based; settings: time 7.0 day
[6] = Volume of distribution at steady state in ICR mouse at 2 mg/kg, iv measured at 0.083 to 24 hrs by LC-MS/MS analysis; type: ADME, organism-based; settings: in vivo, time 0.083-24 hrs, read-out: Vdss
[7] = biological target: Bromodomain-containing protein 2 (Homo sapiens, UniProt P25440); experiment: Inhibition of His-tagged recombinant BRD2 (unknown origin) (11 to 162 residues) using SGRGK(Ac)GGK(Ac)GLGK(Ac)GGAK(Ac)RHRK(Biotin)-OH as substrate measured after 1 hr by HTRF assay
[8] = biological target: Bromodomain-containing protein 3 (Homo sapiens, UniProt Q15059); experiment: Inhibition of His-tagged recombinant BRD3 (unknown origin) (11 to 166 residues) using SGRGK(Ac)GGK(Ac)GLGK(Ac)GGAK(Ac)RHRK(Biotin)-OH as substrate measured after 1 hr by HTRF assay
[9] = biological target: Bromodomain testis-specific protein (Homo sapiens, UniProt Q58F21); experiment: Inhibition of His-tagged recombinant BRDT (unknown origin) (21 to 153 residues) using SGRGK(Ac)GGK(Ac)GLGK(Ac)GGAK(Ac)RHRK(Biotin)-OH as substrate measured after 1 hr by HTRF assay
[10] = biological target: T1, Bromodomain and PHD finger-containing protein 3 (Homo sapiens, UniProt Q9ULD4); experiment: Inhibition of His-tagged recombinant BRPF3 (unknown origin) (11 to 188 residues) using SGRGK(Ac)GGK(Ac)GLGK(Ac)GGAK(Ac)RHRK(Biotin)-OH as substrate measured after 1 hr by HTRF assay
T1 sequence (Q9ULD4 whole entry): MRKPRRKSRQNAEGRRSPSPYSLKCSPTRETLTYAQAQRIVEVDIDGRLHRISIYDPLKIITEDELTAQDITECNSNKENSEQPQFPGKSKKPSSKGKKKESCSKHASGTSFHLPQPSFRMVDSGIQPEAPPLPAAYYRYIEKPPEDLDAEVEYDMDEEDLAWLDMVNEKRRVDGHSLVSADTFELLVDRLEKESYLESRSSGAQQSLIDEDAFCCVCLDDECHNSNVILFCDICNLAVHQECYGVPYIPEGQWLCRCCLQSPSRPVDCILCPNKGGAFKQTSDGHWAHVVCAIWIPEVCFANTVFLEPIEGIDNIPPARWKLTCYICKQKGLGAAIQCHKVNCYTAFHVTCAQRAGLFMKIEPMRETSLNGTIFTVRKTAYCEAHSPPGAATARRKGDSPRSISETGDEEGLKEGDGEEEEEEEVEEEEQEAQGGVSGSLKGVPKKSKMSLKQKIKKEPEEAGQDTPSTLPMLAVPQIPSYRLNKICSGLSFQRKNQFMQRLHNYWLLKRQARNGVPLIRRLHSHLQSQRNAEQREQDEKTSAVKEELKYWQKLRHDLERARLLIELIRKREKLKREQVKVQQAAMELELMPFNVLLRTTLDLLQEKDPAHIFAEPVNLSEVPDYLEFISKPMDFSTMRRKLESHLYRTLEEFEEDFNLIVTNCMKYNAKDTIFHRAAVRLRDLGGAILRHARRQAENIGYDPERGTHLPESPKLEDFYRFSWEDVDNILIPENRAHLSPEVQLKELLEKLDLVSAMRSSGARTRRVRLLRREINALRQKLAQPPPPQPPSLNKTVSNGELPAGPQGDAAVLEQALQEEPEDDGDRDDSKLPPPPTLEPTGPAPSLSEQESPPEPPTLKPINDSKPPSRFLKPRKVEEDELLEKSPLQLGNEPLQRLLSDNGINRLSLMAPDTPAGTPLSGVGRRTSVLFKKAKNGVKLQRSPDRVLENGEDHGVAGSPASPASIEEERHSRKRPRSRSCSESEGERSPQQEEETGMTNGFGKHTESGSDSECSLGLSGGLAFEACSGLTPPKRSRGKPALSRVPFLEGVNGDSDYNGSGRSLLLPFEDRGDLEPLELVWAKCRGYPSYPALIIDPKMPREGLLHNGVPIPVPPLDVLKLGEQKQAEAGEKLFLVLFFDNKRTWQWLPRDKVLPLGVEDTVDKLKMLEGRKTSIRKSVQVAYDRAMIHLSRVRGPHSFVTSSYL

[11] = biological target: T2, Bromodomain-containing protein 1 (Homo sapiens, UniProt O95696); experiment: Inhibition of His-tagged recombinant BRD1 (unknown origin) (11 to 190 residues) using SGRGK(Ac)GGK(Ac)GLGK(Ac)GGAK(Ac)RHRK(Biotin)-OH as substrate measured after 1 hr by HTRF assay
T2 sequence (O95696 whole entry): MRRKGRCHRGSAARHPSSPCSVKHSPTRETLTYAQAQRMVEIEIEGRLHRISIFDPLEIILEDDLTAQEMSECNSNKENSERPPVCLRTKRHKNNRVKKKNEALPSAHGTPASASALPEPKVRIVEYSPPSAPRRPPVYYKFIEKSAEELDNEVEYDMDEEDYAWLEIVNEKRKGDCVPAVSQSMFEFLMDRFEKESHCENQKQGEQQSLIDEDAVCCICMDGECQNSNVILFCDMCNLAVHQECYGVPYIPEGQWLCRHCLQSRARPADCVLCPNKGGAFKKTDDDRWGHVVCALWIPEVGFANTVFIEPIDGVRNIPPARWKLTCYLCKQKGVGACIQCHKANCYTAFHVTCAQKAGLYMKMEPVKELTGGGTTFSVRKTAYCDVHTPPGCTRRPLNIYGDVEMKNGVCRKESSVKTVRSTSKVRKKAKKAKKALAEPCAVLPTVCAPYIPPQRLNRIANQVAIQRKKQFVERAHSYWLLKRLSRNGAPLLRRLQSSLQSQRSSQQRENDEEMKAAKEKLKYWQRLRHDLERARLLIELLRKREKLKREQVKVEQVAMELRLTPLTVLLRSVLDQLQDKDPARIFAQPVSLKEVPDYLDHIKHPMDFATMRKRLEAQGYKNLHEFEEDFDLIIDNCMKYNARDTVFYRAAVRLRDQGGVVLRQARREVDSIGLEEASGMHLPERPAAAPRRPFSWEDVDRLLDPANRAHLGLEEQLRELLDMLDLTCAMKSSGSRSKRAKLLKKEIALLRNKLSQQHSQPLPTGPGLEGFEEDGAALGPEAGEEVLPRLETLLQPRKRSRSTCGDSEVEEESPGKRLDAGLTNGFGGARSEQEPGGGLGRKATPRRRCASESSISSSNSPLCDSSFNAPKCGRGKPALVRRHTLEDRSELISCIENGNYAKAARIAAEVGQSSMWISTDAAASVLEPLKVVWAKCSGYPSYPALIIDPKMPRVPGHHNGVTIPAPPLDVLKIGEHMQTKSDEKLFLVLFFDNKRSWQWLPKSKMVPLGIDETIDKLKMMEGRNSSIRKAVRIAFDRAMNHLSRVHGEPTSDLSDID

[12] = Clearance in ICR mouse at 2 mg/kg, iv measured at 0.083 to 24 hrs by LC-MS/MS analysis; type: ADME, organism-based; settings: in vivo, time 0.083-24 hrs
[13] = Half life in ICR mouse at 30 mg/kg, po measured at 0.083 to 24 hrs by LC-MS/MS analysis; type: ADME, organism-based; settings: in vivo, time 0.083-24 hrs
[14] = Tmax in ICR mouse at 30 mg/kg, po measured at 0.083 to 24 hrs by LC-MS/MS analysis; type: ADME, organism-based; settings: in vivo, time 0.083-24 hrs
[15] = Cmax in ICR mouse at 30 mg/kg, po measured at 0.083 to 24 hrs by LC-MS/MS analysis; type: ADME, organism-based; design: time 0.083-24 hrs, dose 30 mg/kg, route po; settings: in vivo
[16] = AUC (0 to t) in ICR mouse at 30 mg/kg, po measured at 0.083 to 24 hrs by LC-MS/MS analysis; type: ADME, organism-based; design: time lower 0.083 hrs, dose 30 mg/kg, time upper 24 hrs, route po; settings: in vivo
[17] = AUC (0 to infinity) in ICR mouse at 30 mg/kg, po measured at 0.083 to 24 hrs by LC-MS/MS analysis; type: ADME, organism-based; design: time lower 0.083 hrs, dose 30 mg/kg, time upper 24 hrs, route po; settings: in vivo
[18] = Oral bioavailability in ICR mouse at 30 mg/kg measured at 0.083 to 24 hrs by LC-MS/MS analysis; type: ADME, organism-based; settings: in vivo, time 0.083-24 hrs
[19] = Toxicity in mouse assessed as effect on aspartate aminotransferase level in serum at 30 mg/kg/day; type: organism-based; settings: in vivo
[20] = Toxicity in mouse assessed as effect on alanine aminotransferase level in serum at 30 mg/kg/day; type: organism-based; settings: in vivo
[21] = Toxicity in mouse assessed as effect on serum creatinine level at 30 mg/kg/day; type: organism-based; settings: in vivo
[22] = Toxicity in mouse assessed as effect on serum urea level at 30 mg/kg/day; type: organism-based; settings: in vivo
[23] = Toxicity in mouse assessed as pathological changes in spleen at 30 mg/kg/day by H and E staining method; type: organism-based; settings: in vivo
[24] = Toxicity in mouse assessed as pathological changes in heart at 30 mg/kg/day by H and E staining method; type: organism-based; settings: in vivo
[25] = Toxicity in mouse assessed as pathological changes in lung at 30 mg/kg/day by H and E staining method; type: organism-based; settings: in vivo
[26] = Toxicity in mouse assessed as pathological changes in liver at 30 mg/kg/day by H and E staining method; type: organism-based; settings: in vivo

Sequence of Bromodomain-containing protein 2 (P25440 whole entry, the tested form may be a part): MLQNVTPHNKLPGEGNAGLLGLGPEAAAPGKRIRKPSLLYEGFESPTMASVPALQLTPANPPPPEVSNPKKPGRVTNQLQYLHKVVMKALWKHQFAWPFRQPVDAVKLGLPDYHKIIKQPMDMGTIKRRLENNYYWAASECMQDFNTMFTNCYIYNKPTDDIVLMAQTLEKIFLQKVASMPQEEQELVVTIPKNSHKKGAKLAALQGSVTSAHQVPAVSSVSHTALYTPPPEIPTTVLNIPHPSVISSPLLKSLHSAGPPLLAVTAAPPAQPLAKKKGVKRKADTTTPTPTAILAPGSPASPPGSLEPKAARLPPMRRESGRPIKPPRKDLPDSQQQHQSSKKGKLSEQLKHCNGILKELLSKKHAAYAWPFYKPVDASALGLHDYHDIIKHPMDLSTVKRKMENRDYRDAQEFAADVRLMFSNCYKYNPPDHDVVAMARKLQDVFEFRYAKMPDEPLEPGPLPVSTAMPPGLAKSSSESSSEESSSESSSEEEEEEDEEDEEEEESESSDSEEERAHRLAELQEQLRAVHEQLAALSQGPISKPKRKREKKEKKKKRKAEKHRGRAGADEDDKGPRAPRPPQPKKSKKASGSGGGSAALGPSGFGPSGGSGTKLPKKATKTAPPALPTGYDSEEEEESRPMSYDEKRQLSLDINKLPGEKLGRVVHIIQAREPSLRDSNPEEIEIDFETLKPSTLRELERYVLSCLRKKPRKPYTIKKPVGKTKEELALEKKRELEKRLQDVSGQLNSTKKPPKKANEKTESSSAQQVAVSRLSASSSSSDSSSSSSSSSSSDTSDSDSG
Sequence of Bromodomain-containing protein 3 (Q15059 whole entry, the tested form may be a part): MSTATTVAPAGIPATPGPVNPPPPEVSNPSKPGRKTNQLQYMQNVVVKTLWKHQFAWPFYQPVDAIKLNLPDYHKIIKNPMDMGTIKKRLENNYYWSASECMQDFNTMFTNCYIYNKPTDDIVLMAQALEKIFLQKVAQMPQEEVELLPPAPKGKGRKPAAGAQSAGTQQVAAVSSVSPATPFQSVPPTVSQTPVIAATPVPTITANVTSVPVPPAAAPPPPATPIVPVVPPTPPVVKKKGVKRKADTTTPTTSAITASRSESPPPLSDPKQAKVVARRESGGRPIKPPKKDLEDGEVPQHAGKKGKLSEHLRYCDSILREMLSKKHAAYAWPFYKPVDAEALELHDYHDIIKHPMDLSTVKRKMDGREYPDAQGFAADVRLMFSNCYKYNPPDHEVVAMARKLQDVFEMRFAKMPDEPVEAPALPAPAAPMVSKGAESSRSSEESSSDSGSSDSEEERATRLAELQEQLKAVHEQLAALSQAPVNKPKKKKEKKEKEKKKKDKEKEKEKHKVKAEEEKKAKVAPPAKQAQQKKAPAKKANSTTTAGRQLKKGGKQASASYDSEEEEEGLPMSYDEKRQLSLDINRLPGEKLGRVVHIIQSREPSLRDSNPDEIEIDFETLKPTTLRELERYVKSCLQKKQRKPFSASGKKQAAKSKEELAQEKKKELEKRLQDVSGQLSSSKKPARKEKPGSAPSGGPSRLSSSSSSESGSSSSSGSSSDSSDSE

Cc1cn(Cc2ccccc2)c2cc(-c3cn(C)c(=O)c4[nH]ccc34)ccc12
IC50 [1]: 514 nM

Cc1noc(C)c1-c1ccc2ccn(Cc3ccc(C(F)(F)F)cc3)c2c1
IC50 [1]: > 3000 nM

COc1cc(Cn2ccc3ccc(-c4c(C)noc4C)cc32)cc(OC)c1
IC50 [1]: > 3000 nM

CCCC(C)n1ccc2ccc(-c3c(C)noc3C)cc21 (stereo not drawn)
IC50 [1]: 2440 nM

Cc1noc(C)c1-c1ccc2c(C)cn(Cc3ccccc3)c2c1
IC50 [1]: > 3000 nM

Cc1noc(C)c1-c1ccc2ccn(Cc3ccc(F)cc3)c2c1
IC50 [1]: > 3000 nM

Cc1sc2c(c1C)C(c1ccc(Cl)cc1)=N[C@@H](C(=O)OC(C)(C)C)c1nnc(C)n1-2
IC50 [1]: 92 nM
Activity (Mus musculus [2]): Active
Activity (Mus musculus [3]): Active
Activity (Mus musculus [4]): Active
Activity (Mus musculus [5]): Active

CCC(C)n1ccc2ccc(-c3cn(C)c(=O)c4[nH]ccc34)cc21 (stereo not drawn)
IC50 [1]: 674 nM

Cc1noc(C)c1-c1ccc2ccn(Cc3ccccc3)c2c1
IC50 [1]: 2650 nM

CCC(C)n1ccc2ccc(-c3c(C)noc3C)cc21 (stereo not drawn)
IC50 [1]: > 3000 nM

O=C1NC=C(c2ccc3ccn(Cc4ccc(F)cc4)c3c2)C2C=CNC12 (stereo not drawn)
IC50 [1]: 417 nM

Cn1cc(-c2ccc3ccn(Cc4ccccn4)c3c2)c2cc[nH]c2c1=O
Vd [6]: 2.08 L/kg
IC50 [1]: 107 nM
IC50 [7]: 718 nM
IC50 [8]: 502 nM
IC50 [9]: > 1000 nM
IC50 [10]: > 1000 nM
IC50 [11]: > 1000 nM
clearance [12]: 125 mL/min/kg
half-life [13]: 80.4 min
Tmax [14]: 11.4 min
Cmax [15]: 390 ng/mL
AUC(0-t) [16]: 319 ng·h/mL
AUC(0-inf) [17]: 323 ng·h/mL
bioavailability [18]: 7.91%
Activity [19]: Non-Toxic
Activity [20]: Non-Toxic
Activity [21]: Non-Toxic
Activity [22]: Non-Toxic
Activity [23]: Non-Toxic
Activity [24]: Non-Toxic
Activity [25]: Non-Toxic
Activity [26]: Non-Toxic

COc1cc(Cn2ccc3ccc(C4=CNC(=O)C5NC=CC45)cc32)cc(OC)c1 (stereo not drawn)
IC50 [1]: 559 nM

Cc1noc(C)c1-c1ccc2ccn(Cc3ccccn3)c2c1
IC50 [1]: 481 nM

Cc1cn(Cc2cc(F)cc(F)c2)c2cc(C3=CN(C)C(=O)C4NC=CC34)ccc12 (stereo not drawn)
IC50 [1]: 419 nM

CCCC(C)n1ccc2ccc(C3=CNC(=O)C4NC=CC34)cc21 (stereo not drawn)
IC50 [1]: 578 nM

Cc1noc(C)c1-c1ccc2c(C)cn(Cc3cc(F)cc(F)c3)c2c1
IC50 [1]: > 3000 nM

O=C1NC=C(c2ccc3ccn(Cc4cc(F)cc(F)c4)c3c2)C2C=CNC12 (stereo not drawn)
IC50 [1]: 347 nM

Cc1noc(C)c1-c1ccc2ccn(Cc3cc(F)cc(F)c3)c2c1
IC50 [1]: > 3000 nM

Cc1noc(C)c1-c1ccc2ccn(C(C)c3ccccc3)c2c1 (stereo not drawn)
IC50 [1]: > 3000 nM

CC(c1ccccc1)n1ccc2ccc(-c3cn(C)c(=O)c4[nH]ccc34)cc21 (stereo not drawn)
IC50 [1]: 504 nM

Cc1noc(C)c1-c1ccc2ccn(C3CCCC3)c2c1
IC50 [1]: > 3000 nM

O=C1NC=C(c2ccc3ccn(Cc4ccccc4)c3c2)C2C=CNC12 (stereo not drawn)
IC50 [1]: 471 nM

Reference: ChEMBL document CHEMBL5154732, “Discovery of indol-6-yl-pyrrolo[2,3-c]pyridin-7-one derivatives as bromodomain-containing protein 4 (BRD4) inhibitors for the treatment of kidney fibrosis” (Eur J Med Chem, 2022)
